Results from article PMC5940854, “Nitrothiophene carboxamides, a novel narrow spectrum antibacterial series: Mechanism of action and Efficacy” (Scientific Reports, 2018).
Converted amounts (≈) assume the structure as drawn.

How the values were obtained:
[1] = biological target: T1, AcrB efflux pump in E. coli BW25113 (Escherichia coli, UniProt P31224); experiment: Nile red efflux assay (whole-cell competition); format: cell-based
T1 construct: endogenous in cells; host or cells: E. coli BW25113 (wild type)
Protocol: The Nile red assay is adopted from Bohnert et al.[18]. An overnight culture of E. coli strain BW25113 is harvested and is resuspended in 20 mM potassium phosphate buffer (pH 7.0) containing 1 mM MgCl2 (PPB). The cells are adjusted to an A660 of 1.0 in PPB and aliquoted into glass tubes (2 ml each). Carbonylcyanide-m-chlorophenylhydrazone (CCCP; a protonophore that uncouples the electron transport chain and thus inhibits AcrB mediated efflux) is added to a final concentration of 10 µM (5 mM stock solution in 50% DMSO) and incubated for 15 minutes before adding the potential competitor at desired concentrations. Nile red is then added (stock solution of 5 mM in 10% dimethyl formamide-90% ethanol [vol/vol]) to a final concentration of 5 µM. The cell suspension is incubated at room temperature on a shaker for 3 hours. The cells are harvested and resuspended in 2 ml PPB in the presence of the competitor. The cell suspension is aliquoted in a fluorimeter cuvette, to which, 100 µl of 1 M Glucose is added to activate the electron transport chain. The rate of efflux is measured by Tefflux50, it is the time taken for 50% of Nile red to be effluxed out in presence of the compounds. The fluorescence is measured (Excitation 552 nm, Emission 636 nm) for 200 seconds.

[2] = system: E. coli ∆nfsAB & ∆acrB+nfnB; set-up: unit not given beside the values
Protocol: The inoculum used for all the experiments is derived from a single seed lot that is maintained as glycerol stocks at −80 °C and are sub cultured on LB plate for isolated colonies. Single colony of each strain is grown in M9 medium. All test compound stocks and dilutions are prepared in DMSO. Serial two-fold dilutions of compounds are prepared separately, with the concentrations ranging from 2 mg/mL to 0.015 mg/mL. To 150 µl (3–7 × 10^5 CFU/ml) of bacterial culture in 96 well microtitre plates, 3 μL compound from each of the dilutions is added to respective wells to obtain final concentrations ranging from 40 µg/mL to 0.3 µg/mL of the test compounds. Media control, culture control and appropriate reference drug controls are included. […] Growth is monitored by checking absorbance at 600 nm (A600). […] The samples from MIC and above concentrations are plated for MBC (Minimum Bactericidal Concentration). The samples are diluted 1:10 and plated on LB agar plates. […] The killing kinetics is determined by enumerating survivors at various time points following compound exposure. E. coli cells (~10^7 CFU/ml; A600 of 0.1) are treated with various concentrations (40 µg/mL to 0.3 µg/mL) of compounds in a 96-well microtitre plate. At various time intervals (0 to 8 h), 30 μl volumes of treated cultures are serially diluted and plated on LB agar plates. […] Data is expressed as the log10 CFU for each drug treatment.

[3] = system: clinical isolate of E. coli (Strain No. 371); experiment: Neutropenic thigh infection, E. coli clinical isolate; format: in vivo, BALB/c mice
[4] = system: E. coli ∆acrB JW0451-2; experiment: MIC, E. coli ∆acrB; format: cell-based; set-up: MIC ∆acrB: unit not given beside the values
In short: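 Single colonies grown in M9; compounds diluted two-fold in DMSO and added to 3–7 × 10^5 CFU/ml cultures, final 40 to 0.3 µg/mL. Wells at and above MIC diluted 1:10 and plated on LB agar for MBC.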

[5] = system: E. coli clinical isolates; experiment: MIC on panel of E. coli clinical isolates; format: cell-based

T1 sequence (P0AE06 25-397): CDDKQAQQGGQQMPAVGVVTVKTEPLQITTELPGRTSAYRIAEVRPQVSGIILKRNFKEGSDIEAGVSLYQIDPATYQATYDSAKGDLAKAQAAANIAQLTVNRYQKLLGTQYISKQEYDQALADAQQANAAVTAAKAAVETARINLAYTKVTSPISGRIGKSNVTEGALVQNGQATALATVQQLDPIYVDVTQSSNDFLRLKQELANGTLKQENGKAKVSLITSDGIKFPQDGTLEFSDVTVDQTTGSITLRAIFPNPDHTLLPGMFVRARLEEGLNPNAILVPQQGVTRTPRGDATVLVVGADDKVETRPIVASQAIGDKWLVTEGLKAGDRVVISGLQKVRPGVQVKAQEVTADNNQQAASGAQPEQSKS
T1 sequence (P31224 whole entry): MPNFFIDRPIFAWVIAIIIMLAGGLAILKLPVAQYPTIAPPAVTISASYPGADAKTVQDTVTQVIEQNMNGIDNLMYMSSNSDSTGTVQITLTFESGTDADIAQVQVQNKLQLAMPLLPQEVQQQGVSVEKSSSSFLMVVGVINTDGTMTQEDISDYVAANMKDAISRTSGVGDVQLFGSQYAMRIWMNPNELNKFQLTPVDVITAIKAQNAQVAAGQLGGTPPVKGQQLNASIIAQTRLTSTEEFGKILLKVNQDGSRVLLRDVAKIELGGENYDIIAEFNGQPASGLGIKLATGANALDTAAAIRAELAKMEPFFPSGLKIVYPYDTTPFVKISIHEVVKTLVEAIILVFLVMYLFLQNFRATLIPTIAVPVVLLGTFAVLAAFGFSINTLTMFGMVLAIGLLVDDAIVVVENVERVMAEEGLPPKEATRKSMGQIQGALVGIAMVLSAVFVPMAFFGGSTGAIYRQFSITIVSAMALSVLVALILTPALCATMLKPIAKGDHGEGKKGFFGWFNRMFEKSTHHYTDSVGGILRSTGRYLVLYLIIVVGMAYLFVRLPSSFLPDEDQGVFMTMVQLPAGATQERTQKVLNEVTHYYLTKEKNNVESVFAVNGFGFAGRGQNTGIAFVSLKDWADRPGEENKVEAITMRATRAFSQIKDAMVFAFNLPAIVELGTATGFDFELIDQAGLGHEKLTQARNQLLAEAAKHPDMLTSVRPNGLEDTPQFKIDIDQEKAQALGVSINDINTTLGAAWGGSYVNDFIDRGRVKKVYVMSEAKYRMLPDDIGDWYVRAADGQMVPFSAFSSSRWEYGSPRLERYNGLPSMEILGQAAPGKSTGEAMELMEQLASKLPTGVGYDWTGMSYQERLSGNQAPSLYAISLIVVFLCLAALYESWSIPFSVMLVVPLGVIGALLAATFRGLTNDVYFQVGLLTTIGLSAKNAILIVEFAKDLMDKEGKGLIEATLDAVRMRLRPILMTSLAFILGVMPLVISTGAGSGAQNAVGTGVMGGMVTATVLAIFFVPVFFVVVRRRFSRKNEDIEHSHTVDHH
T1 sequence (P02930 23-493, further chain): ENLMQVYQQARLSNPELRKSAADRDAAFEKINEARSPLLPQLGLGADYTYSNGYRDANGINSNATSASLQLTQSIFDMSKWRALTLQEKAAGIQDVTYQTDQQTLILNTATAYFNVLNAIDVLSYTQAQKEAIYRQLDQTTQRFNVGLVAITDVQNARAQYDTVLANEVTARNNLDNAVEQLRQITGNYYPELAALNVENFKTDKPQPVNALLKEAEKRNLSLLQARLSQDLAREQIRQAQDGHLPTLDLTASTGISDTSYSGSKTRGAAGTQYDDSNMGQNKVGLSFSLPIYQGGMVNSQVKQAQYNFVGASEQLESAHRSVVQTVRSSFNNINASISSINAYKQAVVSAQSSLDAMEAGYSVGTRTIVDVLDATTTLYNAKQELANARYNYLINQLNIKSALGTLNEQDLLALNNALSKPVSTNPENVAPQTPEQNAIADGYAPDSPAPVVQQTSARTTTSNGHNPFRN

## O=C(Nc1nc(-c2ccc(F)cc2)cs1)c1ccc([N+](=O)[O-])s1 [compound 15, N-(4-(4-Fluorophenyl)thiazol-2-yl)-5-nitrothiophene-2-carboxamide]
[1]; 1µM compound, time for 50% of Nile red to be effluxed, read for 200 seconds
  Tefflux50: 61.52 s
[1]; 9µM compound
  Tefflux50: 72.51 s
[1]; 27µM compound
  Tefflux50: 81.24 s
[1]; 81µM compound
  Tefflux50: 124.25 s
[1]; 100µM compound
  Tefflux50: 200 s
[1]; 200µM compound
  Tefflux50: 200 s
[1]; 400µM compound
  Tefflux50: 200 s
[1]; E. coli BW25113
  Concentration of compound required for complete inhibition of Nile red efflux (Tefflux50 >200 seconds): 100 µM
[2]
  MIC ∆nfsAB & ∆acrB+nfnB: 0.6
[3]; Study TI-2014-023, Clinical Isolate N. 371, 100mg/kg per oral
  Log10CFU Mean Diff. vs. Untreated Controls: 1.553 Log10CFU
[3]; clinical isolate of E. coli
  efficacy in thigh infection model (in words): significantly bactericidal
[4]; Escherichia coli, read-out: MIC acrB
  MIC: 0.6 µg/mL (≈ 1.72 µM)
[4]; Table S11
  MIC ∆acrB: 0.6
[5]; 75 E.coli clinical isolates
  MIC Range: 0.6 to 40 µg/mL
[5]; Escherichia coli, 75 E.coli clinical isolates, 50% clinical isolates
  MIC50: 1.25 µg/mL (≈ 3.58 µM)
[5]; Escherichia coli, 75 E.coli clinical isolates, 90% clinical isolates
  MIC90: 10 µg/mL (≈ 28.6 µM)
[5]; strain SEC001
  MIC: 1 µg/mL (≈ 2.86 µM)
[5]; strain SEC002
  MIC: 0.5 µg/mL (≈ 1.43 µM)
[5]; strain SEC003
  MIC: 4 µg/mL (≈ 11.4 µM)
[5]; strain SEC004
  MIC: 1 µg/mL (≈ 2.86 µM)
[5]; strain SEC005
  MIC: 0.5 µg/mL (≈ 1.43 µM)
[5]; strain SEC006
  MIC: 0.5 µg/mL (≈ 1.43 µM)
[5]; strain SEC007
  MIC: 1 µg/mL (≈ 2.86 µM)
[5]; strain SEC008
  MIC: 4 µg/mL (≈ 11.4 µM)
[5]; strain SEC011
  MIC: 0.5 µg/mL (≈ 1.43 µM)
[5]; strain SEC012
  MIC: 1 µg/mL (≈ 2.86 µM)
[5]; strain SEC013
  MIC: 2 µg/mL (≈ 5.72 µM)
[5]; strain SEC014
  MIC: 1 µg/mL (≈ 2.86 µM)
[5]; strain SEC015
  MIC: 0.5 µg/mL (≈ 1.43 µM)
[5]; strain SEC016
  MIC: 8 µg/mL (≈ 22.9 µM)
[5]; strain SEC017
  MIC: 1 µg/mL (≈ 2.86 µM)
[5]; strain SEC018
  MIC: 0.5 µg/mL (≈ 1.43 µM)
[5]; strain SEC019
  MIC: 4 µg/mL (≈ 11.4 µM)
[5]; strain SEC020
  MIC: 1 µg/mL (≈ 2.86 µM)
[5]; strain SEC021
  MIC: 0.5 µg/mL (≈ 1.43 µM)
[5]; strain SEC022
  MIC: 1 µg/mL (≈ 2.86 µM)
[5]; strain SEC023
  MIC: 0.5 µg/mL (≈ 1.43 µM)
[5]; strain SEC024
  MIC: 2 µg/mL (≈ 5.72 µM)
[5]; strain SEC025
  MIC: 4 µg/mL (≈ 11.4 µM)
[5]; strain SEC026
  MIC: 2 µg/mL (≈ 5.72 µM)
[5]; strain SEC028
  MIC: 1 µg/mL (≈ 2.86 µM)
[5]; strain SEC029
  MIC: 8 µg/mL (≈ 22.9 µM)
[5]; strain SEC031
  MIC: 8 µg/mL (≈ 22.9 µM)
[5]; strain SEC032
  MIC: 1 µg/mL (≈ 2.86 µM)
[5]; strain SEC033
  MIC: 1 µg/mL (≈ 2.86 µM)
[5]; strain SEC034
  MIC: 1 µg/mL (≈ 2.86 µM)
[5]; strain SEC035
  MIC: 8 µg/mL (≈ 22.9 µM)
[5]; strain SEC036
  MIC: 2 µg/mL (≈ 5.72 µM)
[5]; strain SEC037
  MIC: 8 µg/mL (≈ 22.9 µM)
[5]; strain SEC038
  MIC: 8 µg/mL (≈ 22.9 µM)
[5]; strain SEC039
  MIC: 4 µg/mL (≈ 11.4 µM)
[5]; strain SEC040
  MIC: 8 µg/mL (≈ 22.9 µM)
[5]; strain SEC041
  MIC: 8 µg/mL (≈ 22.9 µM)
[5]; strain SEC042
  MIC: 8 µg/mL (≈ 22.9 µM)
[5]; strain SEC043
  MIC: 8 µg/mL (≈ 22.9 µM)
[5]; strain SEC044
  MIC: 8 µg/mL (≈ 22.9 µM)
[5]; strain SEC045
  MIC: 8 µg/mL (≈ 22.9 µM)
[5]; strain SEC046
  MIC: 8 µg/mL (≈ 22.9 µM)
[5]; strain SEC047
  MIC: 8 µg/mL (≈ 22.9 µM)
[5]; strain SEC048
  MIC: 8 µg/mL (≈ 22.9 µM)
[5]; strain SEC049
  MIC: 8 µg/mL (≈ 22.9 µM)
[5]; strain SEC050
  MIC: 2 µg/mL (≈ 5.72 µM)
[5]; strain SEC051
  MIC: 2 µg/mL (≈ 5.72 µM)
[5]; strain SEC052
  MIC: 1 µg/mL (≈ 2.86 µM)
[5]; strain SEC053
  MIC: 8 µg/mL (≈ 22.9 µM)
[5]; strain SEC054
  MIC: 1 µg/mL (≈ 2.86 µM)
[5]; strain SEC055
  MIC: 1 µg/mL (≈ 2.86 µM)
[5]; strain SEC057
  MIC: 1 µg/mL (≈ 2.86 µM)
[5]; strain SEC058
  MIC: 0.5 µg/mL (≈ 1.43 µM)
[5]; strain SEC059
  MIC: 0.5 µg/mL (≈ 1.43 µM)
[5]; strain SEC060
  MIC: 0.5 µg/mL (≈ 1.43 µM)
[5]; strain SEC061
  MIC: 2 µg/mL (≈ 5.72 µM)
[5]; strain SEC062
  MIC: 2 µg/mL (≈ 5.72 µM)
[5]; strain SEC063
  MIC: 1 µg/mL (≈ 2.86 µM)
[5]; strain SEC064
  MIC: 1 µg/mL (≈ 2.86 µM)
[5]; strain SEC065
  MIC: 1 µg/mL (≈ 2.86 µM)
[5]; strain SEC067
  MIC: 1 µg/mL (≈ 2.86 µM)
[5]; strain SEC068
  MIC: 1 µg/mL (≈ 2.86 µM)
[5]; strain SEC069
  MIC: 1 µg/mL (≈ 2.86 µM)
[5]; strain SEC070
  MIC: 4 µg/mL (≈ 11.4 µM)
[5]; strain SEC071
  MIC: 8 µg/mL (≈ 22.9 µM)
[5]; strain SEC072
  MIC: 8 µg/mL (≈ 22.9 µM)
[5]; strain SEC073
  MIC: 8 µg/mL (≈ 22.9 µM)
[5]; strain SEC074
  MIC: 1 µg/mL (≈ 2.86 µM)
[5]; strain SEC075
  MIC: 1 µg/mL (≈ 2.86 µM)
[5]; strain SEC076
  MIC: 1 µg/mL (≈ 2.86 µM)
[5]; strain SEC077
  MIC: 0.5 µg/mL (≈ 1.43 µM)
[5]; strain SEC078
  MIC: 0.5 µg/mL (≈ 1.43 µM)
[5]; strain SEC079
  MIC: 1 µg/mL (≈ 2.86 µM)
[5]; strain SEC080
  MIC: 1 µg/mL (≈ 2.86 µM)
